Assay results reported in US7709649B2, “Multi-substituted pyridyl sulfoximines and their use as insecticides” (Dow AgroSciences LLC, priority 2006, dated 2010).

Columns and labels:
[1] = test system: cotton aphid (Aphis gossypii); experiment: Insecticidal test for cotton aphid in foliar spray assay; assay type: in vivo; details: for pest or weed control at 50 ppm / pest or weed control at 200 ppm: Aphis gossypii, 72 h, foliar spray on squash, 3 days, Corrected % Control (Abbott), Table 1; for pest or weed control at 50 ppm: read-out: CA 50: % control at 50 ppm against cotton aphid in foliar spray tests; for pest or weed control at 200 ppm: read-out: CA 200: % control at 200 ppm against cotton aphid in foliar spray tests; for CA 0.78: % Control at ppm against cotton aphid (foliar spray): 0.78 ppm; for CA 0.78: % Control at ppm against cotton aphid (foliar spray) / CA 3.13: % Control at ppm against cotton aphid (foliar spray) / CA 12.5: % Control at ppm against cotton aphid (foliar spray) / CA 50: % Control at ppm against cotton aphid (foliar spray): rundown assay, Table 2; for CA 3.13: % Control at ppm against cotton aphid (foliar spray): 3.13 ppm; for CA 12.5: % Control at ppm against cotton aphid (foliar spray): 12.5 ppm; for pest or weed control at 50 ppm / CA 50: % Control at ppm against cotton aphid (foliar spray): 50 ppm
Protocol: Insecticidal Test for Cotton Aphid (Aphis gossypii) in Foliar Spray Assay Squash with fully expanded cotyledon leaves were trimmed to one cotyledon per plant and infested with cotton aphid (wingless adult and nymph) 1 day prior to chemical application. Each plant was examined before chemical application to ensure proper infestation (ca. 30-70 aphids per plant). Compounds (2 mg) were dissolved in 2 ml of acetone:methanol (1:1) solvent, forming stock solutions of 1000 ppm. The stock solutions were diluted 5× with 0.025% Tween 20 in H2O to obtain the highest test solution at 200 ppm. Lower test concentrations (50, 12.5, 3.13 and 0.78 ppm) were prepared by making sequential 4× dilutions from the 200 ppm solution with a diluent consisting 80 parts of 0.025% Tween 20 in H2O and 20 parts of acetone:methanol (1:1). A hand-held Devilbiss sprayer was used to apply the spray solutions until runoff to both sides of the squash cotyledon leaves. Four plants (4 replications) were used for each concentration of each compound. Reference plants (solvent check) were sprayed with the diluent only. Treated plants were held in a holding room for 3 days at approximately 23° C. and 40% RH before the number of live aphids on each plant was recorded. Insecticidal activity was measured by Corrected % Control using Abbott's correction formula: Corrected % Control=100*(X−Y)/X where • X=No. of live aphids on solvent check plants • Y=No. of live aphids on treated plants Insecticidal Test for Green Peach Aphid (Myzus persicae) in Foliar Spray Assay

[2] = test system: green peach aphid (Myzus persicae); experiment: Insecticidal test for green peach aphid in foliar spray assay; assay type: in vivo; design: key to GPA 200: % control at 200 ppm against green peach aphid in foliar spray tests / GPA 50: % control at 50 ppm against green peach aphid in foliar spray tests: A: 90-100; B: 80-89; C: 70-79; D: 60-69; E: 50-59; F: Less than 50; G: Inactive; H: Not tested; details: foliar spray on cabbage seedlings, 3 days, Corrected % Control (Abbott); for pest or weed control at 50 ppm: Myzus persicae, 72 h, read-out: GPA 50: % control at 50 ppm against green peach aphid in foliar spray tests
Protocol: where • X=No. of live aphids on solvent check plants • Y=No. of live aphids on treated plants Insecticidal Test for Green Peach Aphid (Myzus persicae) in Foliar Spray Assay Cabbage seedlings grown in 3-inch pots, with 2-3 small (3-5 cm) true leaves, were used as test substrate. The seedlings were infested with 20-50 green peach aphids (wingless adult and nymph) 2-3 days prior to chemical application. Four seedlings were used for each treatment. Compounds (2 mg) were dissolved in 2 ml of acetone:methanol (1:1) solvent, forming stock solutions of 1000 ppm. The stock solutions were diluted 5× with 0.025% Tween 20 in H2O to obtain the highest test solution at 200 ppm. A lower test concentration of 50 ppm was prepared by making a 4× dilution from the 200 ppm solution with a diluent consisting 80 parts of 0.025% Tween 20 in H2O and 20 parts of acetone: methanol (1:1). A hand-held Devilbiss sprayer was used for spraying a solution to both sides of cabbage leaves until runoff. Reference plants (solvent check) were sprayed with the diluent only. Treated plants were held in a holding room for three days at approximately 23° C. and 40% RH prior to grading. Evaluation was conducted by counting the number of live aphids per plant under a microscope. Insecticidal activity was measured by using Abbott's correction formula: Corrected % Control=100*(X−Y)/X where • X=No. of live aphids on solvent check plants • Y=No. of live aphids on treated plants The Corrected % Control values from the above assays are given in Table 1.

SMILES	pest or weed control at 50 ppm [1] [%]	pest or weed control at 200 ppm [1] [%]	GPA 50: % control at 50 ppm against green peach aphid in foliar spray tests [2]	GPA 200: % control at 200 ppm against green peach aphid in foliar spray tests [2]	melting point [°C]	CA 0.78: % Control at ppm against cotton aphid (foliar spray) [1]	CA 3.13: % Control at ppm against cotton aphid (foliar spray) [1]	CA 12.5: % Control at ppm against cotton aphid (foliar spray) [1]	CA 50: % Control at ppm against cotton aphid (foliar spray) [1]	pest or weed control at 50 ppm [2] [%]
CS(=O)(Cc1cnc(Cl)c(Br)c1)=NC#N (centres unmarked) [Compound 7, [(5-bromo-6-chloropyridin-3-yl)methyl](methyl)-oxido-λ^4-sulfanylidenecyanamide]	90 to 100	90 to 100	G	G	–	–	–	–	–	–
COc1cc(CS(C)(=O)=NC#N)cnc1Cl (centres unmarked) [Compound 5, [(5-methoxy-6-chloropyridin-3-yl)methyl](methyl)-oxido-λ^4-sulfanylidenecyanamide]	70 to 79	90 to 100	G	G	123 to 125	–	–	–	–	–
CS(=O)(Cc1cnc(Cl)c(Cl)c1)=NC#N (centres unmarked) [Compound 1, [(5,6-dichloropyridin-3-yl)methyl](methyl)-oxido λ^4-sulfanylidenecyanamide]	90 to 100	90 to 100	G	–	–	–	–	–	–	–
CSc1ncc(C(C)S(C)(=O)=NC#N)cc1F (centres unmarked) [Compound 4, [1-(5-fluoro-6-methylthioyridin-3-yl)ethyl]-(methyl)-oxido-λ^4-sulfanylidenecyanamide]	80 to 89	90 to 100	G	G	–	–	–	–	–	–
CC(c1cnc(Cl)c(Br)c1)S(C)(=O)=NC#N (centres unmarked) [Compound 8, [1-(5-bromo-6-chloropyridin-3-yl)ethyl](methyl)-oxido-λ^4-sulfanylidenecyanamide]	90 to 100	90 to 100	G	B (80-89)	–	E (50-59)	A (90-100)	A (90-100)	A (90-100)	–
CS(=O)(Cc1cnc(Cl)c(F)c1)=NC#N (centres unmarked) [Compound 2, [(5-fluroro-6-chloropyridin-3-yl)methyl](methyl)-oxido-λ^4-sulfanylidenecyanamide]	90 to 100	90 to 100	–	B (80-89)	–	A (90-100)	A (90-100)	A (90-100)	A (90-100)	50 to 59
CS(=O)(Cc1cnc(Cl)cc1Cl)=NC#N (centres unmarked) [Compound 9, [(4,6-dichloropyridin-3-yl)methyl](methyl)-oxido λ^4-sulfanylidenecyanamide]	90 to 100	90 to 100	G	–	–	–	–	–	–	–
CC(c1cnc(Cl)c(F)c1)S(C)(=O)=NC#N (centres unmarked) [Compound 3, [1-(5-fluoro-6-chloropyridin-3-yl)ethyl](methyl)-oxido-λ^4-sulfanylidenecyanamid]	90 to 100	90 to 100	–	A (90-100)	–	A (90-100)	A (90-100)	A (90-100)	A (90-100)	80 to 89
COc1cc(C(C)S(C)(=O)=NC#N)cnc1Cl (centres unmarked) [Compound 6, [1-(5-methoxy-6-chloropyridin-3-yl)ethyl](methyl)-oxido-λ^4-sulfanylidenecyanamide]	60 to 69	90 to 100	G	G	–	–	–	–	–	–
